Assay results taken from patent US10457691B2, “Macrocyclic kinase inhibitors and uses thereof” (Dana-Farber Cancer Institute, Inc., priority 2014, dated 2019).

What was measured:
Type in all cases: biochemical
BRSK1 = BRSK1 (Homo sapiens, UniProt Q8TDC3); test: Protein kinase assay ([γ-32P] ATP), BRSK1; conditions: read-out: Activity of the protein kinase when treated with compound I-1 (% control)
Method: (§1) In another set of experiments, the activities of the compounds described herein against various protein kinases were determined according to the methods reported in Hastie et al., Nature Protocols, 2006, 1, 968-971.
(§2) Enzyme dilution buffer. This buffer consisted of 50 mM Tris-HCl, pH 7.5, 0.1 mM EGTA, 1 mg ml^−1 bovine serum albumin and 0.1% (vol/vol) 2-mercaptoethanol.
(§3) 10× concentrated assay buffer. An assay buffer of 500 mM Tris-HCl, pH 7.5, 1 mM EGTA, and 100 mM magnesium acetate was used for assay of a wide variety of protein kinases. In some experiments, other cofactors were included (e.g., calcium ions and calmodulin were included for assay of calcium-calmodulindependent protein kinases).
(§4) 1 mM [γ-^32P] ATP. The specific activity of the [γ-^32P] ATP solution was 1×10^5 to 1×10^6 c.p.m. per nmol depending on what was needed to produce an optimal signal/noise ratio. […] To measure the concentration of ATP, a sample of such a stock solution was diluted to 20 μM, and the absorbance of the diluted sample was measured at 259 nm. The absorbance of a 20-μM stock solution of ATP at 259 nm was about 0.31. […] ATP to produce a radioactivity of 1×10^5 to 1×10^6 c.p.m. per nmol. […]
(§5) 13) Measure radioactivity in the samples by Cerenkov counting (e.g., without liquid scintillation fluid) in a liquid scintillation counter using a “^32P program”. […]

CAMKKb = CAMKKb (Homo sapiens, UniProt Q96RR4); test: Protein kinase assay ([γ-32P] ATP), CAMKKb; conditions: read-out: Activity of the protein kinase when treated with compound I-1 (% control)
Method: as §1, §2, §3, §4, §5

CDK9-Cyclin T1 = CDK9-Cyclin T1 (Homo sapiens, UniProt P50750); test: Protein kinase assay ([γ-32P] ATP), CDK9-Cyclin T1; conditions: read-out: Activity of the protein kinase when treated with compound I-1 (% control)
Method: as §1, §2, §3, §4, §5

EIF2AK3 = EIF2AK3 (Homo sapiens, UniProt Q9NZJ5); test: Protein kinase assay ([γ-32P] ATP), EIF2AK3; conditions: read-out: Activity of the protein kinase when treated with compound I-1 (% control)
Chain of EIF2AK3 (Q9NZJ5 30-1116): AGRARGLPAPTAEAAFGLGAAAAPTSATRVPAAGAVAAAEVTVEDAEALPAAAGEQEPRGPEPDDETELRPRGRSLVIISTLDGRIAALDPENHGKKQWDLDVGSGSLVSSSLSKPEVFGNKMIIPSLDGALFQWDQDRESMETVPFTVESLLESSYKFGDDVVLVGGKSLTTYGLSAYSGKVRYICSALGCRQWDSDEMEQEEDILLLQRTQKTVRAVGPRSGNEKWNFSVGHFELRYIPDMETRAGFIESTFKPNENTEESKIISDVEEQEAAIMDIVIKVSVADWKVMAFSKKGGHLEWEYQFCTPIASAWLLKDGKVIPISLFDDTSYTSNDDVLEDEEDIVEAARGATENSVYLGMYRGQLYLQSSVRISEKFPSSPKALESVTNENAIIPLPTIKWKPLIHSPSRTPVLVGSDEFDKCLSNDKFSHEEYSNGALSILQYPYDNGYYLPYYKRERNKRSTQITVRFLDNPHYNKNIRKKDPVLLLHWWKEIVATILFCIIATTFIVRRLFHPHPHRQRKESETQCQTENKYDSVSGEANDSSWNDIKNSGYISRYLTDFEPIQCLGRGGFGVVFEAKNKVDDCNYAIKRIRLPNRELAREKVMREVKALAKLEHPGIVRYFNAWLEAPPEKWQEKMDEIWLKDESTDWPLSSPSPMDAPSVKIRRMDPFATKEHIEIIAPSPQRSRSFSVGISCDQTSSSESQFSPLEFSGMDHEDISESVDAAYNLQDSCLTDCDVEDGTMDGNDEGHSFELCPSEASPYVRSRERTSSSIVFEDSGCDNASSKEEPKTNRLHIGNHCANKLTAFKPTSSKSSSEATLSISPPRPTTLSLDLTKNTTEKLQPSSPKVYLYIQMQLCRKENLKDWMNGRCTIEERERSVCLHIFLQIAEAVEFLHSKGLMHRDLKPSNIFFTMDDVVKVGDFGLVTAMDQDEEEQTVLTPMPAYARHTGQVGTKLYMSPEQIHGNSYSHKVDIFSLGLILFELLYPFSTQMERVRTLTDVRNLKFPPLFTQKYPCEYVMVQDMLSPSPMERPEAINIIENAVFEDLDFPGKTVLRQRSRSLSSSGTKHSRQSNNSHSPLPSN
Method: as §1, §2, §3, §4, §5

ERK8 = ERK8 (Homo sapiens, UniProt Q8TD08); test: Protein kinase assay ([γ-32P] ATP), ERK8; conditions: read-out: Activity of the protein kinase when treated with compound I-1 (% control)
Method: as §1, §2, §3, §4, §5

GCK = GCK (Homo sapiens, UniProt Q12851); test: Protein kinase assay ([γ-32P] ATP), GCK; conditions: read-out: Activity of the protein kinase when treated with compound I-1 (% control)
Chain of GCK (Q12851 whole entry): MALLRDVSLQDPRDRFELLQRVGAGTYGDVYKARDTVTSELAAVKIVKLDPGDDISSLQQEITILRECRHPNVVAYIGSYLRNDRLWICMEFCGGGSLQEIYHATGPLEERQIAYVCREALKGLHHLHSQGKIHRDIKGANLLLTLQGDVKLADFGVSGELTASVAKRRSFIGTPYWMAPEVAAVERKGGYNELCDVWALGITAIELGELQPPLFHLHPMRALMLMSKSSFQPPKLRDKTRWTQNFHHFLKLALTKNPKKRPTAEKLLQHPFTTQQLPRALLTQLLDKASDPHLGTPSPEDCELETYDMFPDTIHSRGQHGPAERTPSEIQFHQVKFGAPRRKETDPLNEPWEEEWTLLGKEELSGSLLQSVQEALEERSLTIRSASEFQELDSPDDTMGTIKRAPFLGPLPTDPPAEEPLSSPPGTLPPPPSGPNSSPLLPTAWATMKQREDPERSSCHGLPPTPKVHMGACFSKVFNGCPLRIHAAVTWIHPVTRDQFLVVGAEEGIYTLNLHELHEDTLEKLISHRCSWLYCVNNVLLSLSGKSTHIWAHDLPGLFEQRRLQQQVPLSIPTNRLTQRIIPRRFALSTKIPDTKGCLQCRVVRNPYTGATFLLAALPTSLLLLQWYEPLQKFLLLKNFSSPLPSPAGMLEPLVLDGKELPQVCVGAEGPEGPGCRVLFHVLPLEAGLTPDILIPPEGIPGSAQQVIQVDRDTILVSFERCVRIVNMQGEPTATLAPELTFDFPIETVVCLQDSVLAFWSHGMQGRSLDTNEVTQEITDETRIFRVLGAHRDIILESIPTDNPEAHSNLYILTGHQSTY
Method: as §1, §2, §3, §4, §5

HIPK3 = HIPK3 (Homo sapiens, UniProt Q9H422); test: Protein kinase assay ([γ-32P] ATP), HIPK3; conditions: read-out: Activity of the protein kinase when treated with compound I-1 (% control)
Method: as §1, §2, §3, §4, §5

IKKe = IKKe (Homo sapiens, UniProt Q14164); test: Protein kinase assay ([γ-32P] ATP), IKKe; conditions: read-out: Activity of the protein kinase when treated with compound I-1 (% control)
Chain of IKKe (Q14164 whole entry): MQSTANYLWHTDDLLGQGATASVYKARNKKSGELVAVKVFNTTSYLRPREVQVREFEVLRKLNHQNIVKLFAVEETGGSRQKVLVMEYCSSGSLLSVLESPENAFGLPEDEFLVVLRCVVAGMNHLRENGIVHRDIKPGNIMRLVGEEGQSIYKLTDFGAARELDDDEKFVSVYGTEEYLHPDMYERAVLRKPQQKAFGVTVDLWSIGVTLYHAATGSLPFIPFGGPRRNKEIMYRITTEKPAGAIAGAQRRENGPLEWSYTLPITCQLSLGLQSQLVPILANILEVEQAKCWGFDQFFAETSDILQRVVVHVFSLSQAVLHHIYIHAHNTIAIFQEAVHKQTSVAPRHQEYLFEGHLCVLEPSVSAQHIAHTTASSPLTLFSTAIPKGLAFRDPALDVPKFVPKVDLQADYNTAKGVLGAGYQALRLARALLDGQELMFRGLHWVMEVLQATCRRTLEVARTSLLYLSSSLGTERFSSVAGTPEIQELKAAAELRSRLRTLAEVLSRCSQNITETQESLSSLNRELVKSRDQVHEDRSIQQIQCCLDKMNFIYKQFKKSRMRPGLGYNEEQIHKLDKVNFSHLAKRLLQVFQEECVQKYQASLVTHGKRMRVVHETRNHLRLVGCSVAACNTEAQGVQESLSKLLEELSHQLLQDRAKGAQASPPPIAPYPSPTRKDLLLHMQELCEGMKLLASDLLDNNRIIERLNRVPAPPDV
Method: as §1, §2, §3, §4, §5

MARK2 = MARK2 (Homo sapiens, UniProt Q7KZI7); test: Protein kinase assay ([γ-32P] ATP), MARK2; conditions: read-out: Activity of the protein kinase when treated with compound I-1 (% control)
Method: as §1, §2, §3, §4, §5

PDK1 = PDK1 (Homo sapiens, UniProt O15530); test: Protein kinase assay ([γ-32P] ATP), PDK1; conditions: read-out: Activity of the protein kinase when treated with compound I-1 (% control)
Chain of PDK1 (O15530 whole entry): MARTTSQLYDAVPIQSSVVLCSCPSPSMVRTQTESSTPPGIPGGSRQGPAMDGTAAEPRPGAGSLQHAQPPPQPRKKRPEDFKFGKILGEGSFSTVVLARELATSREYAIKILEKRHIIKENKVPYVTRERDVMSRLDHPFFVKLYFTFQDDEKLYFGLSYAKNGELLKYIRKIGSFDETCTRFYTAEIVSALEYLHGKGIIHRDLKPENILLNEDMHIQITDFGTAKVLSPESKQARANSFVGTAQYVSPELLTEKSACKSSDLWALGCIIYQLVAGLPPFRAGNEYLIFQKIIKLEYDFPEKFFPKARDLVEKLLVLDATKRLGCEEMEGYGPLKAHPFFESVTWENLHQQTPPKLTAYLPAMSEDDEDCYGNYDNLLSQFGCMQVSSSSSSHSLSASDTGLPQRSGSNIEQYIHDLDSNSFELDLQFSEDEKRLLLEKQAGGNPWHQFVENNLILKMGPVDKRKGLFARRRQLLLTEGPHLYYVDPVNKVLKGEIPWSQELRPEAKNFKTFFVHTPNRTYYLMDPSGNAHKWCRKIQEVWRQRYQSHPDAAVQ
Method: as §1, §2, §3, §4, §5

PHK = test: Protein kinase assay ([γ-32P] ATP), PHK
Method: as §1, §2, §3, §4, §5

PKBa = PKBa (Homo sapiens, UniProt P31749); test: Protein kinase assay ([γ-32P] ATP), PKBa; conditions: read-out: Activity of the protein kinase when treated with compound I-1 (% control)
Method: as §1, §2, §3, §4, §5

PKCz = PKCz (Homo sapiens, UniProt Q05513); test: Protein kinase assay ([γ-32P] ATP), PKCz; conditions: read-out: Activity of the protein kinase when treated with compound I-1 (% control)
Chain of PKCz (Q05513 whole entry): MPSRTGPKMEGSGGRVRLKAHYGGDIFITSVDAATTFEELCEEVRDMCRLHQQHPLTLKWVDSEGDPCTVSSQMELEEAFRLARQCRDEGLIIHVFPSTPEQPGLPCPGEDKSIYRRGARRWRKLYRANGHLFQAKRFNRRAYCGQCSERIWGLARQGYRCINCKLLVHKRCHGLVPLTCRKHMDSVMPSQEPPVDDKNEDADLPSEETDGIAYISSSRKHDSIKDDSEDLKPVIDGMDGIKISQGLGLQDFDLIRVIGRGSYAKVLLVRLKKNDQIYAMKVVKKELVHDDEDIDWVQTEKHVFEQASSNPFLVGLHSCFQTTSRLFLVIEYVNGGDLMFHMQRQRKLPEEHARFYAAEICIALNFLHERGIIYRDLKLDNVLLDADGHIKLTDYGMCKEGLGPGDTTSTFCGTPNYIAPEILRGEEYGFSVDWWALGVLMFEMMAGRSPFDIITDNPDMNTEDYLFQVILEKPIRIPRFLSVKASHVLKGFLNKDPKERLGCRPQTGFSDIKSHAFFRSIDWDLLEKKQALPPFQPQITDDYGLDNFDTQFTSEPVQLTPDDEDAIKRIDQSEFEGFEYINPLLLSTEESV
Method: as §1, §2, §3, §4, §5

PRK2 = PRK2 (Homo sapiens, UniProt Q16513); test: Protein kinase assay ([γ-32P] ATP), PRK2; conditions: read-out: Activity of the protein kinase when treated with compound I-1 (% control)
Method: as §1, §2, §3, §4, §5

RSK2 = RSK2 (Homo sapiens, UniProt P51812); test: Protein kinase assay ([γ-32P] ATP), RSK2; conditions: read-out: Activity of the protein kinase when treated with compound I-1 (% control)
Method: as §1, §2, §3, §4, §5

Src = Src (Homo sapiens, UniProt P12931); test: Protein kinase assay ([γ-32P] ATP), Src; conditions: read-out: Activity of the protein kinase when treated with compound I-1 (% control)
Chain of Src (P12931 whole entry, species assumed): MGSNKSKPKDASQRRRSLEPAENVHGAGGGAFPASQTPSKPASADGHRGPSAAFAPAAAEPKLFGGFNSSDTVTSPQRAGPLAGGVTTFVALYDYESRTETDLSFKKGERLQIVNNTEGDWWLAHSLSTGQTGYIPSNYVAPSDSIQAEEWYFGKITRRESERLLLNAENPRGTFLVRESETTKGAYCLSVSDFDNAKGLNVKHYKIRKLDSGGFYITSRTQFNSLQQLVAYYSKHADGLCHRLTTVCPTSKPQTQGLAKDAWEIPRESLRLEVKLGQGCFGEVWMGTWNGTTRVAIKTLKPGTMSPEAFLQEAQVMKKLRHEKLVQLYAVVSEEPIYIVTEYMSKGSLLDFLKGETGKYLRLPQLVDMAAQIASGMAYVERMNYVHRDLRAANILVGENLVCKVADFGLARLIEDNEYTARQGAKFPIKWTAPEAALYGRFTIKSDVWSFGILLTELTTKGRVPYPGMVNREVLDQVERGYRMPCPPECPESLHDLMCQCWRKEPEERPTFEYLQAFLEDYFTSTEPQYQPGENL
Method: as §1, §2, §3, §4, §5

VEG-FR = VEG-FR (Homo sapiens, UniProt P17948); test: Protein kinase assay ([γ-32P] ATP), VEG-FR; conditions: read-out: Activity of the protein kinase when treated with compound I-1 (% control)
Chain of VEG-FR (P17948 784-1338 limits assumed): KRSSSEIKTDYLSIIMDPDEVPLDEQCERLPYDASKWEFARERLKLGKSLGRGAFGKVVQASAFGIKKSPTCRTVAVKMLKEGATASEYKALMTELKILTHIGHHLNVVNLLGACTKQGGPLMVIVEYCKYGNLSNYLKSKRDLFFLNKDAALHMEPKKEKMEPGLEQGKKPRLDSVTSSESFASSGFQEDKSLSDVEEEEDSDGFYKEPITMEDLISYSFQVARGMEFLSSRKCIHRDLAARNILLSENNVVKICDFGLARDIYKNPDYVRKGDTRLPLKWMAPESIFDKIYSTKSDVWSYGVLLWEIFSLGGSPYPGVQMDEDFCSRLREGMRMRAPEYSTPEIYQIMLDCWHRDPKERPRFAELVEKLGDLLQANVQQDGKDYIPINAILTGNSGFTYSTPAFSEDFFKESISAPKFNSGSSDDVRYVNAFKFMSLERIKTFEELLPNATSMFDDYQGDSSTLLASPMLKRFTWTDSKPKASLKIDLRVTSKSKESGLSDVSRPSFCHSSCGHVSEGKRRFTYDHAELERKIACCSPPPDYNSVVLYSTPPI
Method: as §1, §2, §3, §4, §5

[1] = 0.1 μM of compound I-1, DMSO control = 100%
[2] = 1 μM of compound I-1, DMSO control = 100%

Cc1cccc(C)c1NC(=O)N1C/C=C\COc2cccc(c2)Nc2cc1ncn2 [Compound I-1]
remaining activity at 0.1 µM (BRSK1; [1]): 87%
remaining activity at 1 µM (BRSK1; [2]): 66%
remaining activity at 0.1 µM (CAMKKb; [1]): 101%
remaining activity at 1 µM (CAMKKb; [2]): 88%
remaining activity at 0.1 µM (CDK9-Cyclin T1; [1]): 116%
remaining activity at 1 µM (CDK9-Cyclin T1; [2]): 92%
remaining activity at 0.1 µM (EIF2AK3; [1]): 97%
remaining activity at 1 µM (EIF2AK3; [2]): 80%
remaining activity at 0.1 µM (ERK8; [1]): 99%
remaining activity at 1 µM (ERK8; [2]): 72%
remaining activity at 0.1 µM (GCK; [1]): 71%
remaining activity at 1 µM (GCK; [2]): 16%
remaining activity at 0.1 µM (HIPK3; [1]): 89%
remaining activity at 1 µM (HIPK3; [2]): 81%
remaining activity at 0.1 µM (IKKe; [1]): 111%
remaining activity at 1 µM (IKKe; [2]): 90%
remaining activity at 0.1 µM (MARK2; [1]): 102%
remaining activity at 1 µM (MARK2; [2]): 71%
remaining activity at 0.1 µM (PDK1; [1]): 103%
remaining activity at 1 µM (PDK1; [2]): 87%
Activity of the protein kinase when treated with compound I-1 (% control) (PHK; [1]): 88 % control
Activity of the protein kinase when treated with compound I-1 (% control) (PHK; [2]): 100 % control
remaining activity at 0.1 µM (PKBa; [1]): 99%
remaining activity at 1 µM (PKBa; [2]): 86%
remaining activity at 0.1 µM (PKCz; [1]): 111%
remaining activity at 1 µM (PKCz; [2]): 82%
remaining activity at 0.1 µM (PRK2; [1]): 112%
remaining activity at 1 µM (PRK2; [2]): 87%
remaining activity at 0.1 µM (RSK2; [1]): 98%
remaining activity at 1 µM (RSK2; [2]): 81%
remaining activity at 0.1 µM (Src; [1]): 25%
remaining activity at 1 µM (Src; [2]): 24%
remaining activity at 0.1 µM (VEG-FR; [1]): 49%
remaining activity at 1 µM (VEG-FR; [2]): 7%
